Reference: patent US20220008398A1 (priority 2018, published 2022)
“Also recorded” adds a separate entry of the source. Read-outs that look alike come from different tables or passages of the source.

What was measured:
[1] = test system: drug-evoked expression of the immediate early gene c-fos, whole mouse brain
Description: A unique and novel approach to preclinical testing of psychiatric drugs is based on the proposition that a direct readout of drug-evoked brain activation or inhibition in an animal is the most relevant preclinical assay, because psychiatric drugs exert their effects via activation or inhibition of specific neural circuits and cell types in the brain. […] The method called “pharmacomapping” (implemented by Certerra, Inc. Farmingdale, N.Y.) is based on a largely automated drug-screening platform that comprises whole-brain detection of drug-evoked neuronal activation represented by drug-evoked expression of the immediate early gene (IEG) c-fos (Herrera and Robertson 1996). Until now, the detection of c-fos as a marker of brain activation has been done by laborious methods of in situ hybridization or immunohistochemistry in brain tissue sections, followed by mounting the sections on microscopic slides, manual imaging, and largely visual quantification. Nevertheless, over the last two decades a number of studies used these methods to test drug-evoked activity in the mouse or rat brain for various psychoactive medications, including antipsychotics, antidepressants, stimulants and anxiolytics (Engber et al., 1998; Kiss, 2018; Salminen et al., 1996; SEMBA et al., 1996; Slattery et al., 2005; Sumner et al., 2004).
In contrast to the older methods, the pharmacomapping method uses automated and standardized whole-brain immunostaining and brain clearing together with advanced microscopy (light-sheet fluorescence microscopy, LSFM), computational (e.g. machine learning) and statistical methods (FIG. 1). The first generation of this platform used serial two-photon tomography (STPT) as a method for imaging and c-fos-GFP mice expressing green fluorescent protein (GFP) under the control of the c-fos promoter (US 20140297199A1).

[2] = test system: time spent floating (immobility) in forced swim; experiment: Forced swim test; format: in vivo; conditions: mouse, single dose 10 mg/kg, 1 hour and 24 hours after drug delivery, vs vehicle treated control group
Description: The forced swim test is a frequently used behavioral protocol with a well-established therapeutic predictability for a broad range of antidepressants including ketamine (Porsolt et al. 1977; Cryan and Mombereau 2004; Cryan et al. 2005; Lucki et al. 2001). In this test the mouse is put in a beaker filled with water and the time spent struggling, swimming and floating is measured, with the time spent floating—when the mouse stops struggling to swim—being used as a behavioral correlate of depression.

[3] = test system: severe major depressive disorder; conditions: 490 patients, daily oral gaboxadol 5 mg or 10 mg added to escitalopram 20 mg; cited from earlier work
[4] = test system: sleep onset and sleep maintenance; conditions: three-month efficacy study, insomnia; cited from earlier work
[5] = test system: combined delta, theta and alpha activity; conditions: 160 minutes after administration; cited from earlier work
[6] = test system: suicidal ideation in major depressive disorder; experiment: Prospective randomized clinical trial of oral gaboxadol versus ketamine in patients at risk of suicide
[7] = acute single dose 10 mg/kg, 10 mg/kg
[8] = gaboxadol group vs ketamine group

Row | Structure (SMILES) | drug-evoked brain activation (pharmacomap) ([1]; 3 mg/kg alone) | drug-evoked brain activation (pharmacomap) [1, 7] | drug-evoked brain activation (pharmacomap) ([1]; acute single dose 10 mg/kg, listed as Gaboxadol, 10 mg/kg) | time spent floating (immobility) during 6 min forced swim [2] | benefit in treatment of severe major depressive disorder [3] | effects in sleep onset and sleep maintenance [4] | whole head MEG planar gradiometer increase in combined delta, theta and alpha activity [5] | day 1 POMS total mood disturbance score [6, 8] | decrease in suicidal ideation at 230 minutes [6, 8] | proportion of responders on the SSI at day 1 [6, 8] | Cohen's d for the difference in mean group change (SSI) ([6]; gaboxadol group vs ketamine group, baseline to day 1) | average SSI score at day 1 ([6]; gaboxadol hydrochloride 0.85 mg/kg oral vs ketamine 0.5 mg/kg infusion, 24 hours) | drug-evoked brain activation (pharmacomap) ([1]; 6 mg/kg alone) | drug-evoked brain activation (pharmacomap) ([1]; acute single dose 5 mg/kg) | drug-evoked brain activation (pharmacomap) ([1]; acute single dose 100 mg/kg)
1 | Oc1noc2c1CCNC2 [gaboxadol, 4,5,6,7-tetrahydroisoxazolo [5,4-c]pyridine-3-ol] | neither gaboxadol at 3 mg/kg nor ketamine at 6 mg/kg alone evoked any brain activation detectable | very similar brain activation as ketamine | broad brain activation that is highly similar to that of ketamine | nearly identical behavioral effect as the ketamine group; also recorded: significantly reduced the time spent in floating (immobility) | no additional benefit | failed to show significant effects in sleep onset and sleep maintenance | ≥ +3 | greater improvement in the gaboxadol group compared with the ketamine group | greater in the gaboxadol group compared with the ketamine group | significantly higher in the gaboxadol group than the ketamine group | greater than medium effect size | lower in the gaboxadol group compared with the ketamine group | – | – | –
2 | CNC1(c2ccccc2Cl)CCCCC1=O (centres unmarked) [ketamine] | – | very robust and broad activation; also recorded: very broad activation pattern | – | significantly decreases the time the drug treated mice spent floating; also recorded: significantly reduced the time spent in floating (immobility) | – | – | – | – | – | – | – | – | neither gaboxadol at 3 mg/kg nor ketamine at 6 mg/kg alone evoked any brain activation detectable | modest activation | modest activation
